A word on the IC50: it is the concentration that inhibits the measured activity by half. A word on the inhibition: it is the relative decrease from the control value, in per cent. By EC50 is commonly meant the concentration that produces a half-maximal response.

“Also recorded” adds a separate entry of the source.

The values that follow come from article PMC2939063, “In Vitro and In Vivo Studies of the Trypanocidal Properties of WRR-483 against Trypanosoma cruzi” (PLoS Neglected Tropical Diseases, 2010).

For one assay, the target named is T1, Cathepsin S (Homo sapiens, UniProt P25774).
T1 construct: Reaction Biology Corp (screening service)
T1 sequence (P25774 115-331, species assumed): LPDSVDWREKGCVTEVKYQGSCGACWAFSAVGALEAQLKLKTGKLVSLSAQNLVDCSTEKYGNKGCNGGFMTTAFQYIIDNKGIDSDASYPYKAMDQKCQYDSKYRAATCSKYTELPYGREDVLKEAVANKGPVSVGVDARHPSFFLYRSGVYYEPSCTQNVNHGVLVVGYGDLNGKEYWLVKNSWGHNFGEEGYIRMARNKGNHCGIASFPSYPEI
As to the kind of experiment: Protease inhibition profiling (Reaction Biology Corp): Cathepsin S. The assay is classed as biochemical.

Assay [1] concerns T. cruzi CA-I/72 infected C3H mice. Nature of the assay: Murine model of acute Chagas' disease. The assay is classed as in vivo, mouse. On the set-up: key to Histopathology, Heart / Histopathology, Liver / Histopathology, Spleen / Histopathology, Colon: I/I: Inflammation and infiltration; +10A: Numerous nests of T. cruzi amastigotes; +A: 1-3 nests of T. cruzi amastigotes; Negative. How it is done:
Three to four week old female C3H mice weighing ca. 20 g were used. The animals were separated into five lots of 5 mice per cage and infected with 10^6 tissue-culture derived trypomastigotes of the myotropic T. cruzi CA-I/72 cloned stock. The mice were treated with 100 mg compound/kg of body weight in 100 µL of solution (30–40% DMSO: 60–70% sterile distilled water) intraperitoneally twice a day. Treatment was initiated 12 h post infection and continued until cure, death of the animals, or for a total of 20 days. […] Parasitemias was determined at the end of the experiment when animals were euthanized. Tissues processed for histopathology include skeletal muscle, heart, liver, spleen, and colon. Blood (5–50 µL) was used for hemocultures. […] Compounds were considered toxic if life expectancy is lower than untreated controls (negative values). If necessary, PCR of blood and tissues was performed to confirm effectiveness of treatment and/or cure of treated animals. Results were expressed as survival (days) of treated animals.

The target of another assay is T2, Cathepsin K (Homo sapiens, UniProt P43235).
T2 construct: Reaction Biology Corp (screening service)
T2 sequence (P43235 115-329): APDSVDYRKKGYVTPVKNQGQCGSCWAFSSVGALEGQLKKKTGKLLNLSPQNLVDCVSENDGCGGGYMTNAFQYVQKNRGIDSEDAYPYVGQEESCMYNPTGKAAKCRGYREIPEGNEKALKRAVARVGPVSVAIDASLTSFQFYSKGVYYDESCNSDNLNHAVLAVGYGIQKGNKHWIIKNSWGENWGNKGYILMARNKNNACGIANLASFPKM
Nature of the assay: Protease inhibition profiling (Reaction Biology Corp): Cathepsin K. In kind it is biochemical.

In a further assay the target is T3, Papain (Carica papaya, UniProt P00784).
T3 construct: Reaction Biology Corp (screening service)
T3 sequence (P00784 134-345): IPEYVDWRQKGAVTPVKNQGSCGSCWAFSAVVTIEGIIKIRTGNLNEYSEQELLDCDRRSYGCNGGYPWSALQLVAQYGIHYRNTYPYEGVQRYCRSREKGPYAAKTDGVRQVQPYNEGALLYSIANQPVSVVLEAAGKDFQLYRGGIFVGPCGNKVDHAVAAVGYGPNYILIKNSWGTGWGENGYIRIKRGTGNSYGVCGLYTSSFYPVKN
As to the kind of experiment: Protease inhibition profiling (Reaction Biology Corp): Papain. In kind it is biochemical.

A further assay has as its target T4, Cathepsin C (Homo sapiens, UniProt P53634).
T4 construct: Reaction Biology Corp (screening service)
As to the kind of experiment: Protease inhibition profiling (Reaction Biology Corp): Cathepsin C. The assay is classed as biochemical.

The next assay has as its target T5, tbcatB (Trypanosoma brucei, UniProt Q6R7Z5).
T5 construct: made in house
T5 sequence (Q6R7Z5 23-340): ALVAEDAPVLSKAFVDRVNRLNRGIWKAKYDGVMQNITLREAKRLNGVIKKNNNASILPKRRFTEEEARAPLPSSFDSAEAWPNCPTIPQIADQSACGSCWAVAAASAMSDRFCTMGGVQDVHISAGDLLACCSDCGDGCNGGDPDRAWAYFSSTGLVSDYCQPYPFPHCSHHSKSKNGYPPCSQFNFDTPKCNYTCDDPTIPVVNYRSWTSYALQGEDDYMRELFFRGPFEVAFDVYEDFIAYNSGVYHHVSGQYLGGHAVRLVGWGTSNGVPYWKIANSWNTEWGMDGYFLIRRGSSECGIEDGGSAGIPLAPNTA
Nature of the assay: tbcatB enzyme assay. In kind it is biochemical. The procedure: (§1) Cruzain[27],[28], rhodesain [29], and tbcatB [30] were recombinantly expressed as described previously. TbcatB assays were performed as described previously.[31] Cruzain (2 nM) or rhodesain (3 nM) was incubated with 0.5 to 10 µM inhibitor concentration in 100 mM sodium acetate at pH 5.5, containing 5 mM DTT (buffer A) for 5 min at room temperature. Then buffer A containing Z-Phe-Arg-AMC (Bachem, K M = 1 µM) was added to enzyme inhibitor to give 20 µM substrate concentration in 200 µL, and the increase in fluorescence (excitation at 355 nm and emission at 460 nm) was followed with an automated microtiter plate spectrofluorometer (Molecular Devices, Flex station). Inhibitor stock solutions were prepared at 20 mM in DMSO, and serial dilutions were made in DMSO (0.7% DMSO in assay). Controls were performed using enzyme alone and enzyme with DMSO. IC50 values were determined graphically using inhibitor concentrations in the linear portion of a plot of inhibition versus log[I] (seven concentrations tested with at least two in the linear range).
(§2) Inhibitor dilutions which produce simple exponential progress curves over a wide range of k obs, were used to determine kinetic parameters. The value of k obs, the rate constant for loss of enzyme activity, was determined from an equation for pseudo first order dynamics using Prism 4.0 (GraphPad). When k obs varied linearly with inhibitor concentration, k ass was determined by linear regression analysis. If the variation was hyperbolic, indicating saturation inhibition kinetics, k inact and K i were determined from an equation describing a two-step irreversible inhibitor mechanism [k obs = k inact [I]o/([I]o+Ki* (1+[S]o/K M))] and non-linear regression analysis Prism 4.0.[32] All values were corrected for substrate concentration.

The target of a further assay is T6, Cathepsin V (Homo sapiens, UniProt O60911).
T6 construct: Reaction Biology Corp (screening service)
T6 sequence (O60911 114-334, species assumed): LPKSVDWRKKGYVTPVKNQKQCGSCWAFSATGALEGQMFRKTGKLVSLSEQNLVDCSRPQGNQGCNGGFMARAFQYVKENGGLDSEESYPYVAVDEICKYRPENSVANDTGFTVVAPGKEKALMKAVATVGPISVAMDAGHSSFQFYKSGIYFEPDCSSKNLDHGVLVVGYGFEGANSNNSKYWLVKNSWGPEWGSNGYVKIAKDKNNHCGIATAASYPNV
Nature of the assay: Protease inhibition profiling (Reaction Biology Corp): Cathepsin V. The assay is classed as biochemical.

The next assay has as its target T7, Rhodesain (Trypanosoma brucei rhodesiense, UniProt Q95PM0).
T7 construct: made in house
Nature of the assay: Rhodesain enzyme assay (acetate buffer pH 5.5, Z-Phe-Arg-AMC). The assay is classed as biochemical, T. brucei. Conditions: 100 mM sodium acetate pH 5.5, 5 mM DTT. How it is done:
as §1, §2

The target of a further assay is T8, Cruzain (Trypanosoma cruzi, UniProt P25779).
T8 construct: made in house
T8 sequence (P25779 123-337 limits assumed): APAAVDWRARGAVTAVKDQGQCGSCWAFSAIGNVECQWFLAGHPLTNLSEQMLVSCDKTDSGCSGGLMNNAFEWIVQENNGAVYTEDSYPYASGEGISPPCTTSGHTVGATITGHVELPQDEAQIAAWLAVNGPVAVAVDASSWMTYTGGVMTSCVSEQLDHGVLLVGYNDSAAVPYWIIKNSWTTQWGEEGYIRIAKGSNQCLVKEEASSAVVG
Nature of the assay: Cruzain enzyme assay (acetate buffer pH 5.5, Z-Phe-Arg-AMC). In kind it is biochemical. Conditions: 100 mM sodium acetate pH 5.5, 5 mM DTT. How it is done: as §1, with “(seven concentrations tested with at least two in the linear range).” left out
Inhibitor dilutions which produce simple exponential progress curves over a wide range of k obs, were used to determine kinetic parameters. The value of k obs, the rate constant for loss of enzyme activity, was determined from an equation for pseudo first order dynamics using Prism 4.0 (GraphPad). When k obs varied linearly with inhibitor concentration, k ass was determined by linear regression analysis. […]

For assay [2], the system named is T. cruzi infected J774 macrophages. Nature of the assay: T. cruzi growth inhibition in infected J774 macrophages (cell survival). In kind it is cell-based, Trypanosoma cruzi CA-I/72. Conditions: 10 µM inhibitor every 48 h until Day 27, experiment terminated on Day 47, untreated control 6 days. How it is done:
CA-I/72 T. cruzi parasites were isolated from a chronic Chagasic patient, cloned, and maintained as previously described.[33]
For growth inhibition studies, J774 macrophages cultured in RPMI-1640 medium with 5% heat inactivated fetal calf serum (FCS) were irradiated (9000 rad) to arrest the cell cycle and plated onto 12-well tissue culture plates for 24 h at 37°C. After infection with 10^5 T. cruzi trypomastigotes per well for 2 hours, monolayers were washed with RPMI medium and treated with the inhibitors at 10 µM in RPMI medium (triplicate wells per inhibitor). Inhibitor stocks were made to 10 mM in DMSO and diluted prior to use. All assays include untreated, K11777-treated, and uninfected macrophage controls. Fresh medium with or without inhibitor was replaced every 48 h and inhibitor efficacy was monitored daily. Survival time was defined as the time before the cell monolayer was destroyed by the infection. Under these culture conditions, T. cruzi completed the intracellular cycle in 6 days in untreated controls. […] Macrophages were subsequently cultured in normal medium for up to 40 days to elucidate if the effective inhibitors were trypanocidal (cure host macrophages) or trypanostatic (delay intracellular cycle of the parasite).

Assay [3] relates to T. cruzi infection in BESM cells. On the set-up: method as in PMID 20547819. Conditions: read-out: EC50 against T. cruzi infection in BESM cells; cited from earlier work.
The mark [4] stands for this setting: individual infected mice, 100 mg/kg ip.
Setting [5] is: individual infected mice, 100 mg/kg ip, 100 mg/kg.

T4 sequence (P53634 25-463, species assumed): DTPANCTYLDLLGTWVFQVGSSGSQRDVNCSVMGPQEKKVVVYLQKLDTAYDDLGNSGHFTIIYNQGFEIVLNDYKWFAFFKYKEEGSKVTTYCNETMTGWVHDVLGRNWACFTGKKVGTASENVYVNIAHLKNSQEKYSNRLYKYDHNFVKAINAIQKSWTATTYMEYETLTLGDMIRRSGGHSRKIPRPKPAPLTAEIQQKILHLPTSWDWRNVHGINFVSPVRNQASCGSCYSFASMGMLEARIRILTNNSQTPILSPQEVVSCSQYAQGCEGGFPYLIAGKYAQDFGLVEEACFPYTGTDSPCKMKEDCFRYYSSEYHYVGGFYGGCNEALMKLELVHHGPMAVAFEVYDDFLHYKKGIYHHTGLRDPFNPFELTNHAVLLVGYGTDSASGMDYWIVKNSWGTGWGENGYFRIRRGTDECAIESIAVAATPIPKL
T7 sequence (Q95PM0 entry or part of it): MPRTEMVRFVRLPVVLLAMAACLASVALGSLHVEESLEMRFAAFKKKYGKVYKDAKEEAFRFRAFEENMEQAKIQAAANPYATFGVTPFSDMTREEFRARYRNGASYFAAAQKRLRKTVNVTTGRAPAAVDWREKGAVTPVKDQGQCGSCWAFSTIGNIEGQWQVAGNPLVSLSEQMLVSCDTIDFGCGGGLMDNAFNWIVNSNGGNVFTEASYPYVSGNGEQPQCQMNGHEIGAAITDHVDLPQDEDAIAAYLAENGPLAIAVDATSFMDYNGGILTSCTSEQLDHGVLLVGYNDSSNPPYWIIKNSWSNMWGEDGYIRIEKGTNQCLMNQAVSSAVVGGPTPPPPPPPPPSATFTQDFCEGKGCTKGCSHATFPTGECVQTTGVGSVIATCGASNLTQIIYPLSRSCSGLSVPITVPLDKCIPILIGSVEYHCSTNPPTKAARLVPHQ

In turn, `CN1CCN(C(=O)N[C@@H](Cc2ccccc2)C(=O)N[C@H](/C=C/S(=O)(=O)c2ccccc2)CCc2ccccc2)CC1` [K11777] registered an IC50 at Cathepsin S of 0.6 nM. Besides, the “T. cruzi infected mouse survival” value in assay [1] (100 mg inhibitor/kg body weight in two daily doses, intraperitoneally, untreated control 21 days) was found to be 110 days. Besides, the “survival of the acute infection” value in assay [1] (10^6 trypomastigotes CA-I/72, untreated controls died within 21–60 days) was “survived the acute infection”. For the same molecule, in [1] (setting [4]), the “Histopathology, Colon” value is on record as “N”; the “Histopathology, Liver” value was “N”; the “Histopathology, Spleen” value is “N”. In assay [1] (setting [5]), the “Histopathology, Heart” value was “Mild i/i and N”; the “Histopathology, Sk. muscle” value is on record as “+AIntense i/i; also recorded: Moderate i/i; also recorded: +AModerate i/i; also recorded: Intense i/i”. At Cathepsin K, this molecule came in with an IC50 of 25 nM. At Papain, this molecule gave an IC50 of 0.4 nM. The same molecule yielded an IC50 at Cathepsin C of 0.4 nM. Besides, at tbcatB, the “inhibition of tbcatB (in words)” value was “weak inhibitors” and the tbcatB k ass was found to be 500 ± 100 s⁻¹ M⁻¹. Further, the inhibition at 1 µM at tbcatB (read-out: tbcatB % inhibition at 1 µM) amounted to 48%. Further, the IC50 against Cathepsin V is 1.2 nM. Besides, the “k obs/[I] at 1 µM, Rhodesain” value on Rhodesain was 48,000±10,200 s^-1 M^-1. Moreover, the “k obs/[I] at 1 µM, Cruzain” value at Cruzain is 108,000±4,200 s^-1 M^-1. Further, the “T. cruzi infected cell survival” value in [2] is listed as 47 days. Moreover, in [3], the EC50 was 4200 nM.

Consider `CC[C@@H]([C@H](C)O)n1ncn(-c2ccc(N3CCN(c4ccc(OC[C@@H]5CO[C@@](Cn6cncn6)(c6ccc(F)cc6F)C5)cc4)CC3)cc2)c1=O` [posaconazole], for which the concentration giving a half-maximal response (EC50) in assay [3] was 200 nM.
